Measurements published in patent US20080214504A1, “Vitamin B6 Related Compounds and Methods for Recovery From Trauma” (MEDICURE INTERNATIONAL INC., priority 2004, published 2008).

Test system: patients scheduled for elective percutaneous coronary intervention (PCI) with high-risk features for periprocedural myocardial infarction
Test: Randomized placebo-controlled study of P5P in patients undergoing elective PCI: recovery, length of hospitalization, time to discharge
Assay type: in vivo, human
From the text: Selection of Study Population—The patients selected for this trial were patients scheduled for elective percutaneous coronary intervention (PCI) with high-risk features for periprocedural myocardial infarction, and who satisfied specific inclusion criteria as described in the next section. Patients to be included in this study were of either sex, >18 years of age and admitted to hospital for elective, single-vessel, non-urgent PCI. Patients must have presented with at least one of the following high-risk clinical criteria: • ACS with last chest pain episode (or ischemic equivalent) within 48 hours, • recent myocardial infarction (≦7 days) with return of cardiac markers, (CK, CK-MB, and troponin) to below upper normal limits, • angiographic evidence of reduced epicardial flow (TIMI<3), • angiographic evidence of thrombus, • left ventricular ejection fraction≦30%, or • saphenous vein graft lesion.
The following patients were not eligible for inclusion into the study: • Those having suffered a recent myocardial infarction with elevated cardiac markers (CK-MB, troponin T), that have not returned to below upper limits or normal; • Those with electrocardiographic evidence of left bundle branch block (LBBB), ventricular paced rhythm, or atrial fibrillation; • Those with a planned multivessel PCI or PCI of known total occlusion (TIMI grade 0); • Those with evidence of ongoing or active clinical instability including; sustained systolic blood pressure<90 mmHg, cardiogenic shock, acute pulmonary edema or severe congestive heart failure, suspected acute myocarditis, pericarditis, endocarditis, cardiac tamponade, suspected dissecting aortic aneurysm, hemodynamically significant valvular heart disease, hypertrophic cardiomyopathy, restrictive cardiomyopathy, or congenital heart disease; • Any contraindication to the PCI procedure or any of the standard concomitant therapies used during routine PCI (e.g. aspirin, clopidogrel, heparin, low molecular weight heparin, direct antithrombin inhibitors, platelet glycoprotein IIb/IIIa antagonists); • Patients who were currently enrolled in a clinical trial of an investigational drug or who have participated in a clinical trial for an investigational drug (a new chemical entity not registered for clinical use) within 30 days preceding entry into the study or who are due to enter such a trial during the study period; • Patients with clinically significant abnormal laboratory findings (within 2 weeks prior to PCI) including: ALT, AST, bilirubin, or Alk Phos>1.5×ULN, Serum creatinine>1.8 mg/dL or 159 μmol/L; • Patients with any other pathology such as cancer, mental illness etc., which in the opinion of the investigator, might put the patient at risk or confound the results of the trial; • Female patients who are pregnant, breast feeding or planning a pregnancy during the course of the study; and • Patients who are unable or unwilling to comply with the protocol or who are not expected to complete the study period.
Treatments Administered—Following baseline laboratory assessments, patients were randomized to placebo or P5P (a vitamin B6 related compound), administered as a 10 mg/kg oral dose, at least (4) hours prior to PCI, followed by 10 mg/kg orally divided in two daily doses for fourteen (14) days. If PCI was delayed for more than 12 hours after initial dosing, they continued with scheduled BID dosing. If the initial loading dose was administered prior to or at 12:00 PM on day 1 of randomization, then the patient received a second evening dose. If the initial loading dose was administered following 12:00 PM, then no further dosing was administered on day 1, and the patient was to begin the next dose in the morning of day 2. If a dose was missed for more than 24 hours, patients were to continue to take the study drug as scheduled without taking supplemental doses. The date, time and dosing of the first and last study drug dosing was recorded in the CRF. […]

[1] = P5P 10 mg/kg oral, N = 37 (3 missing)

Cc1ncc(COP(=O)(O)O)c(C=O)c1O [P5P, pyridoxal-5′-phosphate]
Time in hospital relative to placebo (3.3 days versus 7.0 days for placebo): half as long
Length of hospitalization, Median (25th, 75th) (P5P 10 mg/kg oral at least 4 h prior to PCI, then 10 mg/kg/day for 14 days, N = 40): 1.0 (1.0, 3.0) days
Length of hospitalization, Mean (S.D.) (P5P 10 mg/kg oral at least 4 h prior to PCI, then 10 mg/kg/day in two daily doses for 14 days, N = 40): 3.3 (5.5) days
Time to discharge from initiation of PCI, Maximum (P5P 10 mg/kg oral, N = 37): 34.0 days
Time to discharge from initiation of PCI, Minimum (P5P 10 mg/kg oral, N = 37): 1.0 days
Time to discharge from initiation of PCI, Mean (S.D) [1]: 1.9 (5.4) days
Time to discharge from initiation of PCI, Medium (25th, 75th) [1]: 1.0 (1.0, 1.0) days
Length of hospitalization, Maximum (P5P 10 mg/kg oral, N = 40): 34.0 days
Length of hospitalization, Minimum (P5P 10 mg/kg oral, N = 40): 0.0 days
Number of days from initiation of PCI to discharge from hospital, shorter versus placebo (P5P versus placebo): 74%
Time in hospital (placebo 7.0 days): 3.3 days
